# Reference: US20260015376A1, “CONTINUOUS FLOW METHODS FOR PRODUCING MANNOSE-1-PHOSPHATE, POLYMORPHS OF MANNOSE-1-PHOSPHATE, AND COMPOSITIONS AND USES RELATED THERETO” (Glycomine, Inc., priority 2022, published 2026)
# “Also recorded” adds a separate entry of the source.
# Key:
# Type in all cases: physicochemical
# [1] = Water activity experiments to determine relative stability of Forms A, B and C in water/EtOH systems (XRPD)
# Experimental: […]. Water activity experiments were conducted at 25° C. in several different water/EtOH systems to determine relative stability of M1P Forms A, B and C under these conditions.
# About 5 mg each of M1P Forms A, B, and C were combined and added to 0.2 mL saturated solutions of a water/EtOH system. The resulting suspensions were stirred at 5° C., 25° C., or 50° C. for 4 days or 11 days. After 4 or 11 days, the solids (wet cakes) were isolated by centrifugation filtration and analyzed by XRPD to determine which Form(s) remained.
# [2] = Compression study (hydraulic press, XRPD)
# Experimental: About 10 mg of […] Form C was compressed for 5 minutes under 5 MPa or 10 MPa with a hydraulic press. Potential form change and degree of crystallinity were evaluated by XRPD.
# [3] = 12-month stability, polymorph characterization by XRPD and purity by chromatography; conditions: −20° C., 25° C./60% RH, 40° C./75% RH, 5° C.
# Experimental: […] Form C was produced in accordance with the examples above. XRPD was used on samples taken at 1, 3, 6, 9 and 12 months, and tested under four conditions: • -20° C.±5° C., • 25° C.±2° C. at 60% relative humidity (RH)±5% RH, • 40° C.±2° C. at 75% RH±5% RH and • 5° C.±3° C.
# [4] = Water sorption by dynamic vapor sorption (DVS) at 25° C.
# Experimental: Water sorption behavior of […] Form C was investigated using dynamic vapor sorption (DVS) at 25° C. The relative humidity (RH) was increased from 0-80%, with a minimum equilibration time of 60 min and a maximum equilibration time of 360 min.
# [5] = Wet granulation simulation (XRPD); conditions: ethanol as the granulation solvent, dried 10 min at ambient conditions
# Experimental: Ethanol was added dropwise to about 10 mg of M1P Form C until the sample was wetted sufficiently. The wet sample was ground gently in a mortar and a pestle. Post granulation, the sample was dried under ambient conditions for 10 min. Potential form change and degree of crystallinity were evaluated by XRPD.
# [6] = Dry grinding study (XRPD); conditions: ground manually with mortar and pestle for 3 min
# Experimental: About 10 mg of […] Form C was ground manually with a mortar and a pestle for 3 min. Potential form change and degree of crystallinity were evaluated by XRPD.
structure (smiles),measurement,setting,value
O=P([O-])([O-])O[C@H]1O[C@H](CO)[C@@H](O)[C@H](O)[C@@H]1O.[K+].[K+] [Form C],stability over water activity range,[1],stable over a wide water activity range
same,form change by XRPD,[2]; compressed for 5 minutes under 5 MPa,no form change was observed
same,degree of crystallinity by XRPD,[2]; compressed for 5 minutes under 5 MPa and 10 MPa,crystallinity decreased
same,form change by XRPD,[2]; compressed for 5 minutes under 10 MPa,no form change was observed
same,changes to the polymorphic form by XRPD,"[3]; 1, 3, 6, 9 and 12 months",no observed changes to the polymorphic form
same,changes in purity by chromatography,[3]; 12-month stability,no substantial changes observed
same,form change by XRPD following the DVS experiment,[4]; 80% RH at 25° C.,no form change was observed
same,H2O absorbed,"[4]; DVS, 25° C., 80% RH",1.9 % (w/w)
same,hygroscopicity,"[4]; DVS, 25° C., RH 0-80%",only slightly hygroscopic; also recorded: low hygroscopicity
same,% Water absorption,"[4]; DVS, 25° C., relative humidity 0%",0.01%
same,% Water absorption,"[4]; DVS, 25° C., relative humidity 10%",0.51%
same,% Water absorption,"[4]; DVS, 25° C., relative humidity 20%",0.59%
same,% Water absorption,"[4]; DVS, 25° C., relative humidity 30%",0.63%
same,% Water absorption,"[4]; DVS, 25° C., relative humidity 40%",0.65%
same,% Water absorption,"[4]; DVS, 25° C., relative humidity 50%",0.69%
same,% Water absorption,"[4]; DVS, 25° C., relative humidity 60%",0.73%
same,% Water absorption,"[4]; DVS, 25° C., relative humidity 70%",0.82%
same,% Water absorption,"[4]; DVS, 25° C., relative humidity 80%",1.93%
same,form change by XRPD,[5],no form change
same,degree of crystallinity by XRPD,[6],crystallinity decreased
same,form change by XRPD,[6],no form change
